Assay results reported in patent publication US4770705A, “Salts of alkyl-2-benzimidazole-carbamate and fungicidal compositions thereof suitable for paints and plaster” (Schulke & Mayr GmbH, priority 1986, dated 1988).

How the values were obtained:
Alternaria = assay: Test Method A: fungus formation on treated paint/plaster discs, Alternaria; assay type: cell-based
Protocol: (§1) The biological effectiveness of a product according to Example 1 was tested both in an aqueous acrylate paint and in an aqueous plaster dispersion as follows:
(§2) To 50 grams of a usual acrylic paint (for composition see Table I) and of a plaster (for composition see Table II) composition to be tested, the fungicidal compound of Example 1 was added in different concentrations. After extensive stirring, the samples were coated on a sheet of pasteboard and dried for 24 hours at room temperature and for an additional 24 hours at 40° C. These paper samples were then subjected for 72 hours to a water sprayout test whereby 1 liter of water per minute was flushed over the paper supports. After drying for 24 hours at room temperature and for 24 hours at 40° C., the test samples were irradiated for 24 hours with ultraviolet light. Test discs having a diameter of 50 mm were cut from the pasteboard and sterilized with ethylene oxide.
(§3) Sabouraud-plates were seeded with a 0.2 ml suspension of either Aspergillus niger or Alternaria containing about 10^7 germs per ml. The test discs were put onto the plates and incubated at a temperature of 25° to 27° C. for a period of 3 weeks. After a period of 1 or 2 or 3 weeks, respectively, the contamination was rated as follows:
(§4) 1=very small fungus formation (0-5% of the entire surface)
(§5) 2=weak fungus formation (5-25% of the entire surface)
(§6) 3=medium fungus formation (25 to 50% of the entire surface)
(§7) 4=strong fungus formation (50-99% of the entire surface)
(§8) 5=no inhibition of fungus formation.
(§9) A known tetradecane-sulfonic acid adduct of 2-methoxycarbonylaminobenzimidazole (BCM), CARBENDASULF (Hoechst AG, Frankfurt/Main, Germany; prepared according to Example 1 of U.S. Pat. No. 4,046,906), was used for comparison.

Aspergillus niger = assay: Test Method A: fungus formation on treated paint/plaster discs, Aspergillus niger; assay type: cell-based
Protocol: as §1, §2, §3, §4, §5, §6, §7, §8, §9

[1] = acrylic dispersion paint, conc. 0.01%, 1 week
[2] = acrylic dispersion paint, conc. 0.01%, 2 weeks
[3] = acrylic dispersion paint, conc. 0.01%, 3 weeks
[4] = acrylic dispersion paint, conc. 0.02%, 1 week
[5] = acrylic dispersion paint, conc. 0.02%, 2 weeks
[6] = acrylic dispersion paint, conc. 0.02%, 3 weeks
[7] = acrylic dispersion paint, conc. 0.05%, 1 week
[8] = acrylic dispersion paint, conc. 0.05%, 2 weeks
[9] = acrylic dispersion paint, conc. 0.05%, 3 weeks

COC(=O)Nc1nc2ccccc2[nH]1 [CARBENDASULF, tetradecane-sulfonic acid adduct of 2-methoxycarbonylaminobenzimidazole (BCM)]
contamination rating (fungus formation) (Alternaria; [1]): 3 (medium fungus formation (25 to 50% of the entire surface)) | contamination rating (fungus formation) (Alternaria; [2]): 3 (medium fungus formation (25 to 50% of the entire surface)) | contamination rating (fungus formation) (Alternaria; [3]): 4 (strong fungus formation (50-99% of the entire surface)) | contamination rating (fungus formation) (Alternaria; [4]): 2 (weak fungus formation (5-25% of the entire surface)) | contamination rating (fungus formation) (Alternaria; [5]): 2 (weak fungus formation (5-25% of the entire surface)) | contamination rating (fungus formation) (Alternaria; [6]): 3 (medium fungus formation (25 to 50% of the entire surface)) | contamination rating (fungus formation) (Alternaria; [7]): 1 (very small fungus formation (0-5% of the entire surface)) | contamination rating (fungus formation) (Alternaria; [8]): 2 (weak fungus formation (5-25% of the entire surface)) | contamination rating (fungus formation) (Alternaria; [9]): 2 (weak fungus formation (5-25% of the entire surface)) | contamination rating (fungus formation) (Alternaria; plaster, conc. 0.01%, 1 week): 2 (weak fungus formation (5-25% of the entire surface)) | contamination rating (fungus formation) (Alternaria; plaster, conc. 0.01%, 2 weeks): 3 (medium fungus formation (25 to 50% of the entire surface)) | contamination rating (fungus formation) (Alternaria; plaster, conc. 0.01%, 3 weeks): 4 (strong fungus formation (50-99% of the entire surface)) | contamination rating (fungus formation) (Alternaria; plaster, conc. 0.02%, 1 week): 1 (very small fungus formation (0-5% of the entire surface)) | contamination rating (fungus formation) (Alternaria; plaster, conc. 0.02%, 2 weeks): 2 (weak fungus formation (5-25% of the entire surface)) | contamination rating (fungus formation) (Alternaria; plaster, conc. 0.02%, 3 weeks): 4 (strong fungus formation (50-99% of the entire surface)) | contamination rating (fungus formation) (Alternaria; plaster, conc. 0.05%, 1 week): 1 (very small fungus formation (0-5% of the entire surface)) | contamination rating (fungus formation) (Alternaria; plaster, conc. 0.05%, 2 weeks): 2 (weak fungus formation (5-25% of the entire surface)) | contamination rating (fungus formation) (Alternaria; plaster, conc. 0.05%, 3 weeks): 2 (weak fungus formation (5-25% of the entire surface)) | contamination rating (fungus formation) (Aspergillus niger; [1]): 3 (medium fungus formation (25 to 50% of the entire surface)) | contamination rating (fungus formation) (Aspergillus niger; [2]): 3 (medium fungus formation (25 to 50% of the entire surface)) | contamination rating (fungus formation) (Aspergillus niger; [3]): 4 (strong fungus formation (50-99% of the entire surface)) | contamination rating (fungus formation) (Aspergillus niger; [4]): 2 (weak fungus formation (5-25% of the entire surface)) | contamination rating (fungus formation) (Aspergillus niger; [5]): 2 (weak fungus formation (5-25% of the entire surface)) | contamination rating (fungus formation) (Aspergillus niger; [6]): 3 (medium fungus formation (25 to 50% of the entire surface)) | contamination rating (fungus formation) (Aspergillus niger; [7]): 1 (very small fungus formation (0-5% of the entire surface)) | contamination rating (fungus formation) (Aspergillus niger; [8]): 1 (very small fungus formation (0-5% of the entire surface)) | contamination rating (fungus formation) (Aspergillus niger; [9]): 2 (weak fungus formation (5-25% of the entire surface)) | contamination rating (fungus formation) (Aspergillus niger; plaster, conc. 0.01%, 1 week): 2 (weak fungus formation (5-25% of the entire surface)) | contamination rating (fungus formation) (Aspergillus niger; plaster, conc. 0.01%, 2 weeks): 3 (medium fungus formation (25 to 50% of the entire surface)) | contamination rating (fungus formation) (Aspergillus niger; plaster, conc. 0.01%, 3 weeks): 3 (medium fungus formation (25 to 50% of the entire surface)) | contamination rating (fungus formation) (Aspergillus niger; plaster, conc. 0.02%, 1 week): 1 (very small fungus formation (0-5% of the entire surface)) | contamination rating (fungus formation) (Aspergillus niger; plaster, conc. 0.02%, 2 weeks): 2 (weak fungus formation (5-25% of the entire surface)) | contamination rating (fungus formation) (Aspergillus niger; plaster, conc. 0.02%, 3 weeks): 3 (medium fungus formation (25 to 50% of the entire surface)) | contamination rating (fungus formation) (Aspergillus niger; plaster, conc. 0.05%, 1 week): 1 (very small fungus formation (0-5% of the entire surface)) | contamination rating (fungus formation) (Aspergillus niger; plaster, conc. 0.05%, 2 weeks): 1 (very small fungus formation (0-5% of the entire surface)) | contamination rating (fungus formation) (Aspergillus niger; plaster, conc. 0.05%, 3 weeks): 2 (weak fungus formation (5-25% of the entire surface))
